The values below come from ChEMBL document CHEMBL3045759, “Synthesis of a New 1, 2, 4-Oxadiazol-5-one Derivative, KC10017, and Its Controlling Activity against Rice Blast Disease Caused by Magnaporthe grisea” (J Pestic Sci, 2002).

The subject of data set [1] is Pyricularia grisea. The experiment in a line: microbe, parasite or virus in culture. Format: functional. The conditions noted are these: P-2.
Data set [2] concerns Pyricularia grisea. The experiment in a line: microbe, parasite or virus in culture. The data set is classed as functional. Particulars: P-2. This is another data set of the same source.
The test system of data set [3] is Pyricularia grisea. The experiment in a line: microbe, parasite or virus in culture. The data set is classed as functional. Particulars: P-2. This is another data set of the same source.
Data set [4] can be described thus: Lipophilicity, log P of the compound. Format: physicochemical. The conditions noted are these: octanol/water.
Data set [5] has as its system Pyricularia grisea. As to the kind of experiment: microbe, parasite or virus in culture. The data set is classed as functional. Particulars: P-2. The source holds these as a separate data set.
The subject of data set [6] is Pyricularia grisea. The experiment in a line: Inhibition of mycelial growth of Magnaporthe grisea P-2 assessed as mycelial dry weight at 0.1 to 100 ug/ml at 25 degC. Format: functional, organism-based.
In data set [7] the test system is Pyricularia grisea. As to the kind of experiment: Fungicidal activity against Magnaporthe grisea P-2 in rice plant assessed as control of rice blast disease at 100 ug/ml measured after 14 days of treatment at 26 +/- 2 degC measured afterr 5 days. Format: functional, organism-based.
In data set [8] the test system is Pyricularia grisea. As to the kind of experiment: Fungicidal activity against Magnaporthe grisea P-2 in rice plant assessed as control of rice blast disease at 0.5 ug/ml at 26 +/- 2 degC measured after 5 days. Format: functional, organism-based.
A further data set relates to Blumeria hordei. As to the kind of experiment: Fungicidal activity against Blumeria graminis f. sp. hordei assessed as control of barley powdery mildew at 50 ug/ml. Format: functional, organism-based.
The next data set relates to Puccinia triticina. As to the kind of experiment: Fungicidal activity against Puccinia triticina assessed as control of wheat leaf rust disease at 50 ug/ml. The data set is classed as functional, organism-based.
The next data set concerns Phytophthora infestans. As to the kind of experiment: Fungicidal activity against Phytophthora infestans assessed as control of tomato late blight disease at 50 ug/ml. Format: functional, organism-based.
Another data set has as its system Botrytis cinerea. As to the kind of experiment: Fungicidal activity against Botryotinia fuckeliana assessed as control of cucumber gray mold disease at 50 ug/ml. Format: functional, organism-based.
The subject of a further data set is Rhizoctonia solani. The experiment in a line: Fungicidal activity against Rhizoctonia solani assessed as control of rice sheath blight disease at 50 ug/ml. Format: functional, organism-based.
Data set [9] relates to Pyricularia grisea. The experiment in a line: Fungicidal activity against Magnaporthe grisea P-2 in rice plant assessed as control of rice blast disease at 50 ug/ml. The data set is classed as functional, organism-based.

Active and inactive are the calls of the source. The rule behind the calls is not given here.

Usually inhibition stands for the change of the read-out against control, counted positive when it falls. Regarding `CCOP(=O)(Sc1ccccc1)Sc1ccccc1` [EDIFENPHOS], the inhibition at 1 µg/mL amounted to 44.8% in the data set on Pyricularia grisea [1] and 76.4% in the data set on Pyricularia grisea [3]. Also, the inhibition at 10 µg/mL with Pyricularia grisea [2] was determined as 100%.
The logP is the decadic logarithm of the partition coefficient of the neutral form, usually between octanol and water. Read a high logP as higher lipophilicity. On to `Cc1cccc(NC(=O)Cn2c(COc3c(C)cc(Br)cc3C)noc2=O)c1`, for which the logP in data set [4] was 6.01. Also, the inhibition at 10 µg/mL with Pyricularia grisea [5] and in the data set with Pyricularia grisea [2] was 0% each time. For the same compound, the values for the inhibition at 1 µg/mL in the data set on Pyricularia grisea [1] and in the data set on Pyricularia grisea [3] were 0% and 2.9%, respectively. Further, the inhibition entry in the data set with Pyricularia grisea [6] was “inactive”. The result in the data set with Pyricularia grisea [7], in the data set on Pyricularia grisea [8] and with Pyricularia grisea [9] was Active. For the same compound, the outcome with Blumeria hordei, in the data set with Puccinia triticina, in the data set with Phytophthora infestans, with Botrytis cinerea and in the data set on Rhizoctonia solani was inactive.
`CN(CC[C@H](N)CC(=O)N[C@H]1C=C[C@H](n2ccc(N)nc2=O)O[C@@H]1C(=O)O)C(=N)N` [BLASTICIDIN_S]: the figures for the inhibition at 1 µg/mL in the data set on Pyricularia grisea [1] and in the data set with Pyricularia grisea [3] were 25.2% and 76.6%, respectively. For the same compound, in the data set on Pyricularia grisea [2], at 10 µg/mL the inhibition was 100%.
In the case of `Cc1cccc2sc3nncn3c12` [TRICYCLAZOLE], the inhibition at 10 µg/mL in the data set with Pyricularia grisea [5] turned out to be 0%; with Pyricularia grisea [2], 7.2%. Besides, the inhibition at 1 µg/mL in the data set on Pyricularia grisea [1] amounted to 0%; with Pyricularia grisea [3] it was 3.8%.
